For one assay, the target named is rat orexin 1 receptor (Rattus norvegicus, UniProt P56718). The experiment in a line: Rat orexin 1 receptor radioligand binding. Here is the method: (§1) Data are analyzed using pc-Sandy macro and graphed on Graphpad Prism 5. For analysis, each concentration point is averaged from triplicate values and the averaged values are plotted on Graphpad Prism. The IC50 was determined by applying the following equation (GraphPad Prism 5.0, SanDiego) for one site competition where X=log (concentration) and Y=specific binding. Top denotes the total [^3H]-(1-(5-(2-fluoro-phenyl)-2-methyl-thiazol-4-yl)-1-((S)-2-(5-phenyl-(1,3,4)oxadiazol-2-ylmethyl)-pyrrolidin-1-yl)-methanone) binding, bottom denotes the nonspecific [^3H]-(1-(5-(2-fluoro-phenyl)-2-methyl-thiazol-4-yl)-1-((S)-2-(5-phenyl-(1,3,4)oxadiazol-2-ylmethyl)-pyrrolidin-1-yl)-methanone) binding. Graphpad Prism calculates Ki value from IC50 and the pre-determined Kd values for [^3H]-(1-(5-(2-fluoro-phenyl)-2-methyl-thiazol-4-yl)-1-((S)-2-(5-phenyl-(1,3,4)oxadiazol-2-ylmethyl)-pyrrolidin-1-yl)-methanone) and [3H]-EMPA. The Ki for each compound is then uploaded into 3DX. Each run comprises individual compounds in triplicate.
(§2) Rat and Human Orexin 1 Receptor Radioligand Binding Studies
After centrifugation (2K×G, 5 min at 4° C.), the supernatant was aspirated and the pellets frozen and stored at −80° C. […] Each cell pellet from a 15 cm plate was resuspended in 10 mL, stored on ice, and homogenized for 45 sec prior to addition to the reactions. Competition binding experiments in 96 well polypropylene plates were performed using [^3H]-(1-(5-(2-fluoro-phenyl)-2-methyl-thiazol-4-yl)-1-((S)-2-(5-phenyl-(1,3,4)oxadiazol-2-ylmethyl)-pyrrolidin-1-yl)-methanone) (Moraveck Corporation, specific activity=35.3 Ci/mmol), diluted to a 10 nM concentration in PBS (4 nM final). […] The final concentration of DMSO in the reactions is equal to or less than 0.1%. Total and nonspecific binding was determined in the absence and presence of 10 μM almorexant. The total volume of each reaction is 200 μL (20 μL of diluted compounds, 80 μL of [^3H]-(1-(5-(2-fluoro-phenyl)-2-methyl-thiazol-4-yl)-1-((S)-2-(5-phenyl-(1,3,4)oxadiazol-2-ylmethyl)-pyrrolidin-1-yl)-methanone) diluted in PBS and 100 μL of the cell suspension). […] The plates were washed 3 times by aspirating 30 ml PBS through the plates. Plates were dried in 55° C. oven for 60 min, scintillation fluid was added, and the radioactivity was counted on a Topcount (Packard).

Another assay concerns the target human orexin 1 receptor (Homo sapiens, UniProt O43613). Description: Human orexin 1 receptor radioligand binding. Here is the method:
The in vitro affinity of the compounds of the invention for the rat/human orexin 1 and human orexin 2 receptors was determined by competitive radioligand binding using [^3H](1-(5-(2-fluoro-phenyl)-2-methyl-thiazol-4-yl)-1-((S)-2-(5-phenyl-(1,3,4)oxadiazol-2-ylmethyl)-pyrrolidin-1-yl)-methanone) (Langmead et al., 2004) and [^3H]EMPA (n-ethyl-2[96-methoxypyridin-3-yl)-(toluene-2-sulfonyl)-amino]-N-pyridin-3-ylmethyl acetamide), respectively (Langmead et al., 2004, British Journal of Pharmacology 141:340-346; Malherbe et al., 2004, British Journal of Pharmacology 156:1326-41).
as §1, §2
Human Embryonic Kidney 293 cells (HEK293) stably expressing rat orexin 1 receptor (Genebank accession number NM_001525) or Chinese ovary cells (CHO) stably expressing human orexin 1 receptor (Genebank accession number NM_001526) were grown to confluency in DMEM (Hyclone, cat #SH30022), 10% FBS, 1×Pen/Strep, 1× sodium pyruvate, 10 mM HEPES, 600 μg/mL G418 and DMEM/F12 (Gibco, Cat #11039), 10% FBS, 1×Pen/Strep, 600 μg/mL G418 media, respectively on 150 cm^2 tissue culture plates, washed with 5 mM EDTA in PBS (HyClone Dulbecco's Phosphate Buffered Saline 1× with Calcium and Magnesium, Cat #SH30264.01, hereafter referred to simply as PBS) and scraped into 50 ml tubes. After centrifugation (2K×G, 5 min at 4° C.), the supernatant was aspirated and the pellets frozen and stored at −80° C. Cells were resuspended in PBS in the presence of 1 tablet of protease inhibitor cocktail (Roche, Cat. #11836145001) per 50 mL. Each cell pellet from a 15 cm plate was resuspended in 10 mL, stored on ice, and homogenized for 45 sec prior to addition to the reactions. Competition binding experiments in 96 well polypropylene plates were performed using [^3H]-(1-(5-(2-fluoro-phenyl)-2-methyl-thiazol-4-yl)-1-((S)-2-(5-phenyl-(1,3,4)oxadiazol-2-ylmethyl)-pyrrolidin-1-yl)-methanone) (Moraveck Corporation, specific activity=35.3 Ci/mmol), diluted to a 10 nM concentration in PBS (4 nM final). […] The final concentration of DMSO in the reactions is equal to or less than 0.1%. Total and nonspecific binding was determined in the absence and presence of 10 μM almorexant. The total volume of each reaction is 200 μL (20 μL of diluted compounds, 80 μL of [^3H]-(1-(5-(2-fluoro-phenyl)-2-methyl-thiazol-4-yl)-1-((S)-2-(5-phenyl-(1,3,4)oxadiazol-2-ylmethyl)-pyrrolidin-1-yl)-methanone) diluted in PBS and 100 μL of the cell suspension). Reactions were run for 60 min at room temperature and terminated by filtration through GF/C filter plates (PerkinElmer, Cat. #6005174) presoaked in 0.3% polyethylenimine using the cell harvester (PerkinElmer Filtermate). The plates were washed 3 times by aspirating 30 ml PBS through the plates. Plates were dried in 55° C. oven for 60 min, scintillation fluid was added, and the radioactivity was counted on a Topcount (Packard).

Another assay addresses human orexin 2 receptor (Homo sapiens (Human), UniProt O43614). The experiment in a line: Human orexin 2 receptor radioligand binding ([3H]-EMPA). The note with it: averages of 2-20 runs, read-out: hOX2 Ki. Here is the method:
as §1
Human Orexin 2 Receptor Radioligand Binding Studies
HEK293 stably expressing human orexin 2 receptor (Genebank accession number NM_001526) were grown to confluency in DMEM (Hyclone, cat #SH30022), 10% FBS, 1×Pen/Strep, 1× NaPyruvate, 10 mM HEPES, 600 ug/ml G418 media on 150 cm^2 tissue culture plates, washed with 5 mM EDTA in PBS (HyClone Dulbecco's Phosphate Buffered Saline 1× with Calcium and Magnesium, Cat #SH30264.01, hereafter referred to simply as PBS) and scraped into 50 ml tubes. After centrifugation (2K×G, 5 min at 4° C.), the supernatant was aspirated and the pellets frozen and stored at −80° C. […] Each cell pellet from a 15 cm plate was resuspended in 10 mL, stored on ice, and homogenized for 45 sec just prior to addition to the reactions. Competition binding experiments in 96 well polypropylene plates were performed using [^3H]-EMPA (Moraveck Corporation, specific activity=29.6 Ci/mmol), diluted to a 5 nM concentration in PBS (2 nM final concentration). […] The final concentration of DMSO in the reactions is equal to or less than 0.1%. Total and nonspecific binding was determined in the absence and presence of 10 μM almorexant. The total volume of each reaction is 200 μL (20 μL of diluted compounds, 80 μL of [^3H]-EMPA diluted in PBS and 100 μL of the cell suspension). […] The plates were washed 3 times by aspirating 30 ml PBS through the plates. Plates were dried in 55° C. oven for 60 min, scintillation fluid was added, and the radioactivity was counted on a Topcount (Packard).

Setting [1] is: rat orexin 1 receptor radioligand binding, averages of 2-20 runs, read-out: rOX1 Ki.
The mark [2] stands for this setting: human orexin 1 receptor radioligand binding, averages of 2-20 runs, read-out: hOX1 Ki.

Where a name gives a salt, the structure may show the parent alone. Read-outs that look alike come from different tables or passages of the source.

These results are taken from US9611251B2, “Substituted piperidine compounds and their use as orexin receptor modulators” (Janssen Pharmaceutica NV, priority 2013, dated 2017).

human orexin 2 receptor, sequence (O43614 whole entry): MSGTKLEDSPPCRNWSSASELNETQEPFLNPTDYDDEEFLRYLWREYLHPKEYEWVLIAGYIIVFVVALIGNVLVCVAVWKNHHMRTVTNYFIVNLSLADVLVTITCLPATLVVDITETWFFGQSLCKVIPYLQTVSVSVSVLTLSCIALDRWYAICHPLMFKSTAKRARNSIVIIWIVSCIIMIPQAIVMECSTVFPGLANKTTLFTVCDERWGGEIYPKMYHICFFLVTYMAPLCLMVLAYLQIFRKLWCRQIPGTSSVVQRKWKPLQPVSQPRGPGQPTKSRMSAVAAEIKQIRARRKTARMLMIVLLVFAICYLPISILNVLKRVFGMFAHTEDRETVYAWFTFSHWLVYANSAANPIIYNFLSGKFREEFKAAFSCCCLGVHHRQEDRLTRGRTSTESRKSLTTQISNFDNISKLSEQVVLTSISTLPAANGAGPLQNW

Turning to `C[C@H]1[C@H](Oc2ncc(C(F)(F)F)cc2F)CCCN1C(=O)c1ccc(F)cc1-c1ncccn1` [Example 222, (4-fluoro-2-(pyrimidin-2-yl)phenyl)((2S,3R)-3-((3-fluoro-5-(trifluoromethyl)pyridin-2-yl)oxy)-2-methylpiperidin-1-yl)methanone], the Ki at rat orexin 1 receptor (setting [1]) amounted to 55 nM; on human orexin 1 receptor (setting [2]), 91 nM; at human orexin 2 receptor it was 1300 nM.

Take `CCOc1ccc(C)nc1C(=O)N1CCC[C@@H](Oc2ccc(C(F)(F)F)cn2)[C@@H]1C` [Example 219, (3-ethoxy-6-methylpyridin-2-yl)((2S,3R)-2-methyl-3-((5-(trifluoromethyl)pyridin-2-yl)oxy)piperidin-1-yl)methanone]: the Ki stood at 51 nM on rat orexin 1 receptor (setting [1]), 55 nM at human orexin 1 receptor (setting [2]) and 1300 nM at human orexin 2 receptor.

As for `C[C@H]1[C@H](Oc2ncc(Cl)cn2)CCCN1C(=O)c1cccc(F)c1-n1nccn1` [Example 161, ((2S,3R)-3-((5-chloropyrimidin-2-yl)oxy)-2-methylpiperidin-1-yl)(3-fluoro-2-(2H-1,2,3-triazol-2-yl)phenyl)methanone], the values for the Ki on rat orexin 1 receptor (setting [1]), at human orexin 1 receptor (setting [2]) and at human orexin 2 receptor were 226 nM, 395 nM and 3200 nM, respectively.

As for `Cc1ccc(-c2ncccn2)c(C(=O)N2CCC[C@@H](Oc3ncc(C(F)(F)F)cc3F)[C@@H]2C)n1` [Example 223, ((2S,3R)-3-((3-fluoro-5-(trifluoromethyl)pyridin-2-yl)oxy)-2-methylpiperidin-1-yl)(6-methyl-3-(pyrimidin-2-yl)pyridin-2-yl)methanone], the results for the Ki at rat orexin 1 receptor (setting [1]), at human orexin 1 receptor (setting [2]) and at human orexin 2 receptor were 35 nM, 45 nM and 370 nM, respectively.

Take `C[C@H]1[C@H](Oc2ccc(C(F)(F)F)cn2)CCCN1C(=O)c1ccc(F)cc1-n1nccn1` [Example 147, (4-fluoro-2-(2H-1,2,3-triazol-2-yl)phenyl)((2S,3R)-2-methyl-3-((5-(trifluoromethyl)pyridin-2-yl)oxy)piperidin-1-yl)methanone]: the Ki on rat orexin 1 receptor (setting [1]) was 50 nM; at human orexin 1 receptor (setting [2]) it was 31 nM; on human orexin 2 receptor, 765 nM.

In the case of `C[C@H]1[C@H](Nc2cnc(C(F)(F)F)cn2)CCCN1C(=O)c1ccc(F)cc1-c1ncccn1` (relative stereo) [Example 209, (4-fluoro-2-(pyrimidin-2-yl)phenyl)((2S*,3R*)-2-methyl-3-((5-(trifluoromethyl)pyrazin-2-yl)amino)piperidin-1-yl)methanone], the Ki was 16 nM on rat orexin 1 receptor (setting [1]), 25 nM at human orexin 1 receptor (setting [2]) and 944 nM at human orexin 2 receptor.

For the molecule `C[C@H]1[C@H](Oc2ccc(C(F)(F)F)cn2)CCCN1C(=O)c1cccc(F)c1-n1nccn1` [Example 124, (3-fluoro-2-(2H-1,2,3-triazol-2-yl)phenyl)((2S,3R)-2-methyl-3-((5-(trifluoromethyl)pyridin-2-yl)oxy)piperidin-1-yl)methanone], the Ki at rat orexin 1 receptor (setting [1]) came out at 21 nM; on human orexin 1 receptor (setting [2]), 13 nM; on human orexin 2 receptor it was 460 nM.

On to `Cc1cnc(C(=O)N2CCC[C@@H](N(C)c3nc4ccccc4o3)[C@@H]2C)c(-n2nccn2)c1` (relative stereo) [Example 187, ((2S*,3R*)-3-(benzo[d]oxazol-2-yl(methyl)amino)-2-methylpiperidin-1-yl)(5-methyl-3-(2H-1,2,3-triazol-2-yl)pyridin-2-yl)methanone], for which the inhibition constant (Ki) came out at 20 nM at rat orexin 1 receptor (setting [1]) and 39 nM at human orexin 1 receptor (setting [2]).

Turning to `C[C@H]1[C@H](Oc2ncc(C(F)(F)F)cc2F)CCCN1C(=O)c1ccccc1-c1ncc(F)cn1` [Example 156, ((2S,3R)-3-((3-fluoro-5-(trifluoromethyl)pyridin-2-yl)oxy)-2-methylpiperidin-1-yl)(2-(5-fluoropyrimidin-2-yl)phenyl)methanone], the Ki amounted to 47 nM on rat orexin 1 receptor (setting [1]), 30 nM on human orexin 1 receptor (setting [2]) and 1300 nM on human orexin 2 receptor.

Consider `Cc1ccc(-c2ncco2)c(C(=O)N2CCC[C@@H](Nc3ccc(C(F)(F)F)cn3)[C@@H]2C)n1` (racemic) [Example 22, (±)-trans-(2-methyl-3-((5-(trifluoromethyl)pyridin-2-yl)amino)piperidin-1-yl)(6-methyl-3-(oxazol-2-yl)pyridin-2-yl)methanone hydrochloride], for which the values for the Ki at rat orexin 1 receptor and at human orexin 1 receptor were 36 nM and 21 nM, respectively.

Regarding `Cc1noc(-c2cc(F)ccc2C(=O)N2CCC[C@@H](Nc3ccc(C(F)(F)F)cn3)[C@@H]2C)n1` (relative stereo) [Example 190, (4-fluoro-2-(3-methyl-1,2,4-oxadiazol-5-yl)phenyl)((2S*,3R*)-2-methyl-3-((5-(trifluoromethyl)pyridin-2-yl)amino)piperidin-1-yl)methanone], the inhibition constant Ki is 26 nM at rat orexin 1 receptor (setting [1]) and 18 nM at human orexin 1 receptor (setting [2]).

Regarding `Cc1cnc(C(=O)N2CCC[C@@H](Nc3cnc(Cl)cn3)[C@@H]2C)c(-n2nccn2)c1` (relative stereo) [Example 182, ((2S*,3R*)-3-((5-chloropyrazin-2-yl)amino)-2-methylpiperidin-1-yl)(5-methyl-3-(2H-1,2,3-triazol-2-yl)pyridin-2-yl)methanone], the Ki at rat orexin 1 receptor (setting [1]) is 93 nM; at human orexin 1 receptor (setting [2]), 148 nM.

For orientation: Ki means the dissociation constant of the complex between target and ligand, obtained from inhibition or displacement.
